Tested on: premenopausal women with heavy menstrual bleeding associated with uterine fibroids
Assay: Twelve month study with 300 mg BID (initial studies and extension study), heavy menstrual bleeding responder rate
Type: in vivo, human
Method: This study was a randomized, double-blind, multicenter, extension study designed to evaluate the efficacy and safety of elagolix alone and in combination with an exemplary low-dose hormone (add-back) therapy (estradiol (“E2”) 1.0 mg/norethindrone acetate (“NETA”) 0.5 mg) in premenopausal women with heavy menstrual bleeding associated with uterine fibroids for up to 12 months total (an initial 6 months on active treatment in one of two replicate initial (i.e., pivotal) studies and an additional 6 months in this extension study.
Subjects who received elagolix 300 mg twice daily or elagolix 300 mg twice daily in combination with E2/NETA in the initial studies continued to receive the same treatment (n=94 and 206, respectively) while subjects who received placebo in the initial studies were randomized in an equal ratio to one of the two treatment groups (elagolix 300 mg BID (n=56) or elagolix 300 mg BID+E2/NETA (n=54)).
The primary efficacy endpoint was the percentage of subjects meeting the responder criteria: a) menstrual blood loss (MBL) volume<80 mL during the final, AND b) 50% or greater reduction in MBL volume from baseline to the final month. […]

## COc1cccc(-c2c(C)n(Cc3c(F)cccc3C(F)(F)F)c(=O)n(C[C@H](NCCCC(=O)O)c3ccccc3)c2=O)c1F [Elagolix, 4-((R)-2-[5-(2-fluoro-3-methoxy-phenyl)-3-(2-fluoro-6-trifluoromethyl-benzyl)-4-methyl-2,6-dioxo-3,6-dihydro-2H-pyrimidin-1-yl]-1-phenyl-ethylamino)-butyric acid]
Initial and extension studies, elagolix 300 mg BID
  Hypoestrogenic effects, such as hot flush and reduction in bone mineral density: observed
Up to twelve months of treatment
  safety signals: no new safety signals
